# Laboratory results taken from patent US20200188388A1, “METHODS AND COMPOSITIONS FOR PO[…] DRUGS AND REDUCING THEIR SIDE EFFECTS” (RVX THERAPEUTICS LTD., priority 2016, published 2020).
# Columns and labels:
# Wistar rats [1] = assay: Rotenone-induced PD: severe oligokinesia in open field test; format: in vivo, rat; details: oligokinesia ++-+++ in OF test
# Method: Locomotive activity of rats was tested in the “open field” test. […] Registration of horizontal and vertical locomotive activity was carried out in first day for rats with high selection locomotive activity (total walking time with not less than 12 seconds and the number of vertical uprights at least 4), 60 minutes before the first administration of rotenone. To identify the rotenone-induced oligokinesia in each experimental group the locomotive activity in the open field test was examined again 2 hours after the administration of rotenone on days 12 and 19 of the experiment.
# (§1) Quantification of oligokinesia in points: 0 points—the highest horizontal activity (walking total time more than 12 seconds) and high vertical activity (number of vertical posts) more than 3; 1 point—reducing the horizontal activity (total walking time 7-11 seconds) and a decrease in vertical activity (the number of vertical columns 1-3); 2 points—a significant reduction in horizontal activity (total walking time 2-6 seconds) and the absence of vertical activity (the number of vertical columns 0-1); 3 points—the absence of horizontal activity (total walking time 0-1 seconds) and the absence of vertical activity (number of vertical columns 0). In each experimental group 120 minutes after administration of rotenone on days 12 and 19 of experiment the number of rats with severe oligokinesia (2-3 points) in % of the total number of rats in group was determined.
# Locomotive activity of rats was tested in the “open field” test. […] Registration of horizontal and vertical locomotive activity was carried out in first day for rats with high selection locomotive activity (total walking time with not less than 12 seconds and the number of vertical uprights at least 4), 60 minutes before the first administration of rotenone. To identify the rotenone-induced oligokynesia in each experimental group the locomotive activity in the open field test was examined again 2 hours after the administration of rotenone on days 12 and 19 of the experiment.
# as §1, with “of oligokynesia” for “of oligokinesia”
# Wistar rats [2] = assay: Rotenone model: hyperkinetic side effect in open field test (days 10 and 18); format: in vivo, rat; details: locomotive activity in OF test increased more than 50% vs first day
# Method: Anti-parkinsonian effect of therapy in rats with rotenone-induced PD was estimated according to elimination of extrapyramidal disorders (catalepsy) and oligokinesia (rapid decreased amplitude and velocity of repeated movements) in the “open field” test. The neuro-protective effect of therapy was evaluated by the elimination of ataxia limb dystonia and mortality in rats with rotenone-induced PSP. Hyperkinetic side action (hyper-locomotion) was evaluated by increased horizontal and vertical activity in the open field at the 10th and 18th day of the experiment, calculated in % compared to the first day of the experiment.
# Ataxia and limb dystonia registration was performed twice daily, 30 minutes before administration of rotenone and 180 minutes after administration of rotenone. For each experimental group on a daily basis, throughout the whole period of observation number of rats with severe ataxia and limb dystonia (++−+++) and mortality in % of the total number of rats in group was determined. The neuro-protective effect of therapy (effects on rate of ataxia, limb dystonia and lethality) in rats with PSP was determined at days 12 and 19 of the experiment as reducing the number of rats with severe ataxia limb dystonia and mortality in % compared to control. Side hyperkinetic effects were evaluated in the “open field” test. In this test the locomotive activity in rats is determined. […] Registration of horizontal and vertical locomotive activity in OF assay was performed on the 10th and 18th day of the experiment, within 40 minutes after administration of the substance and 5 minutes before administration of rotenone. Side hyperkinetic effects was evaluated by the number of rats with a significant (at least 50% compared with the first day of the experiment) increase in horizontal and vertical activity (hyperkinesia) as a % of the total number of rats in group.
# Anti-parkinsonian effect of therapy in rats with rotenone-induced parkinsonism was estimated according to elimination of extrapyramidal disorders (catalepsy) and oligokinesia in the “open field” test. The neuro-protective effect of therapy was evaluated by the elimination of ataxia and mortality in rats with rotenone-induced PSP. Hyperkinetic side action (hyper-locomotion) was evaluated by increased horizontal and vertical activity in the open field at the 10th and 18th day of the experiment, calculated in % compared to the first day of the experiment.
# The neuro-protective effect in the experimental groups of rats with rotenone-induced PSP was evaluated due the elimination of ataxia and mortality caused by neurotoxic action of rotenone. Ataxia is typical incoordination neurotoxic effect of rotenone manifested in uncoordinated movements and hyper-locomotion, replaced by hypokinesia and stereotypes, and in severe cases a complete violation of antigravity reflexes, falling on its side and akinesia. Assessment of the severity of ataxia in scores was performed using the following scale: (+) uncoordinated movement, hyperkinesia; (++) significant incoordination, hypokinesia, stereotypes, falling on its side; (+++) complete violation of antigravity reflexes, akinesia. Ataxia registration was performed twice daily, 30 minutes before administration of rotenone and 180 minutes after administration of rotenone. For each experimental group on a daily basis, throughout the whole period of observation number of rats with severe ataxia (++−+++) and mortality in % of the total number of rats in group was determined. The neuro-protective effect of therapy (effects on rate of ataxia and lethality) in rats with PSP was determined at days 12 and 19 of the experiment as reducing the number of rats with severe ataxia and mortality in % compared to control. Side hyperkinetic effects were evaluated in the “open field” test. In this test the locomotive activity in rats is determined. […]
SMILES,"Severe oligokinesia (% of group) (Wistar rats [1]; Day 12, levodopa 10 mg/kg oral)","Severe oligokinesia (% of group) (Wistar rats [1]; Day 12, levodopa 20 mg/kg oral)","Severe oligokinesia (% of group) (Wistar rats [1]; Day 19, levodopa 10 mg/kg oral)","Severe oligokinesia (% of group) (Wistar rats [1]; Day 19, levodopa 20 mg/kg oral)","Hyperkmesia (% of group) (Wistar rats [2]; Day 10, levodopa 10 mg/kg oral)","Hyperkmesia (% of group) (Wistar rats [2]; Day 10, levodopa 20 mg/kg oral)","Hyperkmesia (% of group) (Wistar rats [2]; Day 18, levodopa 10 mg/kg oral)","Hyperkmesia (% of group) (Wistar rats [2]; Day 18, levodopa 20 mg/kg oral)","Severe oligokinesia (% of group) (Wistar rats [1]; Day 12, memantine 5 mg/kg oral)","Severe oligokinesia (% of group) (Wistar rats [1]; Day 19, memantine 5 mg/kg oral)","Hyperkmesia (% of group) (Wistar rats [2]; Day 10, memantine 5 mg/kg oral)","Hyperkmesia (% of group) (Wistar rats [2]; Day 18, memantine 5 mg/kg oral)"
"N[C@@H](Cc1ccc(O)c(O)c1)C(=O)O [Levodopa, L-3,4-dihydroxyphenylalanine]",86 % of group,50 % of group,100 % of group,63 % of group,0 % of group,88 % of group,0 % of group,75 % of group,–,–,–,–
"CC12CC3CC(C)(C1)CC(N)(C3)C2 [Memantine, memantine]",–,–,–,–,–,–,–,–,50 % of group,50 % of group,40 % of group,60 % of group
